Data from ChEMBL document CHEMBL1201862, “PubChem BioAssay data set” (2004).
Active and inactive are the calls of the source.

Tests used:
cells [1] = assay type: functional, cell-based
cells [2] = assay type: functional, cell-based; remark: listed apart in the source
[3] = target: T1, DNA repair and recombination protein RAD54-like (Homo sapiens, UniProt Q92698); experiment: RAD54 Holliday junction migration blockers – biochemical, fluorescence, cherry-picked samples, dose series, confirmation (AID 651657); assay type: functional
T1 sequence (Q92698 whole entry): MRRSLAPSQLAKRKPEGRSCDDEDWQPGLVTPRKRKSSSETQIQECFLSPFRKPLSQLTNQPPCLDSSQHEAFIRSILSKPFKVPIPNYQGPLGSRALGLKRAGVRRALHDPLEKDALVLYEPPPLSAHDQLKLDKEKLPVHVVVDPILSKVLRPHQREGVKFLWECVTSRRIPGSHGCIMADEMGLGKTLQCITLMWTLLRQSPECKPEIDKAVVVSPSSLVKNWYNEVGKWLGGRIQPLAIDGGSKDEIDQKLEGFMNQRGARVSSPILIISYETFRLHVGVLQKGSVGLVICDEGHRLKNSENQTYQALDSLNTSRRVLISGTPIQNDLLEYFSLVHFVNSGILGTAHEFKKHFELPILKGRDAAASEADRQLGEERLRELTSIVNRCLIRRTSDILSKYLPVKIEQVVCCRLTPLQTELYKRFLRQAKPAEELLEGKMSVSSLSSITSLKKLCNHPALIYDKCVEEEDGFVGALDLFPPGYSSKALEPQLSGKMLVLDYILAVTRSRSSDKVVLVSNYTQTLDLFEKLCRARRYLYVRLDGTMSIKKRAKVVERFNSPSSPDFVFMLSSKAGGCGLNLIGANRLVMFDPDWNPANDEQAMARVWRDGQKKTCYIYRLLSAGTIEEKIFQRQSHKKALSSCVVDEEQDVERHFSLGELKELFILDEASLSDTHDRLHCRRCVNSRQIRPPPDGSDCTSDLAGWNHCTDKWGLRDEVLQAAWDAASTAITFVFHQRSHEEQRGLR

[4] = A cytotoxicity screen of small molecule inhibitors of the PhoP region in Salmonella typhi identified in the primary screen. [Related pubchem assays: 1850, 1864, 1985 ]; assay type: functional
HEK293 = experiment: EBV LMP1 TES2 canonical NF-kB signalling blockers – cell-based, HEK293, luciferase, cherry-pick, dose response (AID 588343); assay type: functional; details: Homo sapiens
[5] = alpha-synuclein stem-loop luciferase translation blockers – H4 neuroglioma cells, luminescence, confirmation (AID 1988); assay type: functional, cell-based
[6] = Luminescence Cell-Based Dose Response HTS to Identify Inhibitors of 5'UTR Stem-Loop Driven Prion Protein mRNA Translation in H4 Neuroglioblastoma Cells. [Related pubchem assays: 1827 (Project Summary), 1813 (Primary HTS)]; assay type: functional
[7] = THP-1 cell cytotoxicity, dose response, cytotoxicity control for non-replicating M. tuberculosis project (AID 489025); assay type: functional
INS1 = experiment: INS-1E survival protection against cytokine death – cell-based, luminescence, retest, dose response (AID 449756); assay type: functional; details: Rattus norvegicus;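 further: cell death triggered by IL-1 beta plus TNF-alpha plus IFN-gamma mixture; protective hits raise ATP signal compared with cytokine alone wells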
[8] = viability of uninfected HEp-2 cells – cell-based, HTS, cytotoxicity control for RSV inhibitor project, dose response (AID 2410); assay type: functional; details: human respiratory syncytial virus
cells [9] = experiment: cells
Large T antigen = Large T antigen (Simian virus 40, UniProt P03070); assay type: functional, Betapolyomavirus macacae;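 further: Confirmatory-stage PubChem screen for compounds that inhibit SV40 T antigen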
[10] = target: Heat shock protein HSP 90-alpha (Homo sapiens, UniProt P07900); assay type: functional, organism-based
cells [11] = assay type: functional
[12] = viability of PTEN-deleted HCT116 cells – cell-based, HCT116 PTEN knockout, dose response (AID 1047); assay type: functional;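 further: HCT116 colon tumor cells with PTEN knocked out; cells exposed to compound for 60 hours before readout; potency for loss of cell viability measured by luminescence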
[13] = viability of HCT116 lacking mutant beta-catenin – cell-based, human colon tumor, dose response (AID 1045); assay type: functional;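 further: HCT116 colon tumor cells with beta catenin knocked out; cells exposed to compound for 60 hours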
[14] = luciferase reporter signal suppression in cells – H4 neuroglioma cells, luminescence, dose response (AID 1990); assay type: functional, cell-based

Large T antigen, sequence (P03070 whole entry): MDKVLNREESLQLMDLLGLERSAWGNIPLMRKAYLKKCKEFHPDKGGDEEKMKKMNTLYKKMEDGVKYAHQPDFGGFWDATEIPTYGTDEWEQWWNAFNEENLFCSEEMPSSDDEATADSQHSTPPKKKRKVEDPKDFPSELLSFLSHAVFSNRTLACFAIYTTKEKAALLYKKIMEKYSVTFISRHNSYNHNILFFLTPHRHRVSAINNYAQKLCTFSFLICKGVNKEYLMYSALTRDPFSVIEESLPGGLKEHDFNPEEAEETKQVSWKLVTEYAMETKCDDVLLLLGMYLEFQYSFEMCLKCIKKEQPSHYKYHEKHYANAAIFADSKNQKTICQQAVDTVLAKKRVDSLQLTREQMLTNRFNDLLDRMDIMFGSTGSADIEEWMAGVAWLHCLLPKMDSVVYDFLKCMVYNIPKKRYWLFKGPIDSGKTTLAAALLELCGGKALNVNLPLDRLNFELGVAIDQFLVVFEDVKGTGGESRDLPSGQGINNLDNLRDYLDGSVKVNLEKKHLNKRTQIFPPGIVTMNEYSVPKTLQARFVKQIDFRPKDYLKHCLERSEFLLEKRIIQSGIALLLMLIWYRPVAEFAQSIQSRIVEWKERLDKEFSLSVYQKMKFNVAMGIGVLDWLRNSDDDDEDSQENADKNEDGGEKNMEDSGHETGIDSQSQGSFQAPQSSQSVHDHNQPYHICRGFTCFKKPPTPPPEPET

With `O=C(CSc1nnc(-c2ccccc2Cl)o1)N1CCOCC1` as the compound, how does the EC50 (cells [1]) read?
The EC50 was > 350 µM (not active).

And the EC50 (cells [2])?
Its EC50 is > 350 µM (not active).

Which AC50 [3] does the source give for `CCOC(=O)c1cc(-c2ccncc2)nc2c1c(C)nn2-c1ccccn1` here?
Its AC50 is 30.4 µM (active).

What about the EC50 [4] of the same compound?
Its EC50 is > 50 µM (active).

With `Cc1nc(C)c(-c2ccc(SCc3ccccc3F)nn2)s1` as the compound, how does the EC50 [4] read?
Its EC50 is > 50 µM (active).

Which AC50 (HEK293) does the source give for `CCc1nn2cc(-c3ccccc3)nc2s1` here?
Its AC50 is 2.06 µM (active).

With `CCn1nnc2cc(C(=O)NCCc3ccccc3F)ccc21` as the compound, how does the EC50 [5] read?
The EC50 was 5.03 µM (active).

What about the AC50 (HEK293) of the same compound?
Its AC50 is 3.14 µM (active).

And the EC50 [6]?
The EC50 was 4.08 µM (active).

For `NC(=O)c1c(NC(=O)CSc2nc(N)cc(O)n2)sc2c1CCCC2`, which EC50 [4] is on record?
The EC50 was > 50 µM (active).

What does the source list for `COc1cccc(C(=O)SC2=NCCS2)c1`?
EC50 (cells [1]): > 350 µM (not active); EC50 (cells [2]): 55.8 µM (active)

For `CC(=O)Oc1ccc(N(C(C)=O)S(=O)(=O)c2cccs2)c2ccccc12`, which CC50 [7] is on record?
The CC50 was 26.1 µM (active).

What about the AC50 (INS1) of the same compound?
Its AC50 is 8.83 µM (active).

With `COC(=O)C1=C(C)N(Cc2ccco2)C(=O)N[C@H]1c1cccc(C(F)(F)F)c1` as the compound, how does the CC50 [8] read?
The CC50 was 25.6 µM (active).

And the IC50 (cells [9])?
The IC50 was 1.47 µM (active).

For `COc1ccc(/C=C2/C(=O)N(Cc3ccco3)C(=O)N(C(C)C)C2=O)cc1`, which IC50 (Large T antigen) is on record?
Its IC50 is 80.6 µM (active).

For `CN1C(=O)C(=C(Nc2ccc(F)cc2)c2ccccc2Cl)C(=O)N(C)C1=O`, which AC50 [10] is on record?
Its AC50 is 3.17 µM (active).

Which results are given for `O=C(N/N=C/C(Br)=C/c1ccccc1)c1ccncc1`?
CC50 [7]: > 40 µM (active); IC50 (cells [11]): 0.61 µM (active)

With `O=C(N/N=C/c1cccnc1)c1ccc([N+](=O)[O-])cc1Cl` as the compound, how does the EC50 [4] read?
Its EC50 is > 50 µM (active).

Which IC50 (Large T antigen) does the source give for `O=C(N/N=C/c1ccc(O)c(O)c1)c1cccc(S(=O)(=O)N2CCCC2)c1` here?
Its IC50 is 4.72 µM (active).

Which EC50 [12] does the source give for `CCCCN(CC)S(=O)(=O)c1ccc(C(=O)/N=c2\sc3cc(NC(C)=O)ccc3n2C)cc1` here?
The EC50 was 17.1 µM (active).

And the EC50 [13]?
The EC50 was 10.2 µM (active).

Which EC50 [5] does the source give for `Cc1cccc(NS(=O)(=O)c2ccc(C)c(C(=O)OCC(=O)Nc3cc(C)on3)c2)c1` here?
Its EC50 is 28.1 µM (active).

And the CC50 [8]?
Its CC50 is 23.9 µM (active).

And the IC50 (cells [9])?
Its IC50 is 30.8 µM (active).

And the EC50 [14]?
Its EC50 is 41.1 µM (active).

What about the EC50 [6] of the same compound?
Its EC50 is > 120 µM (not active).
